Values after ≈ are worked out from the molar mass of the structure shown.
Legend:
[1] = Hygroscopicity test (DVS); type: physicochemical
Experimental: Dynamic vapor sorption (DVS) curves were acquired on a DVS Intrinsic in SMS (Surface Measurement Systems). The relative humidity at 25° C. was corrected with the deliquescence points of LiCl, Mg(NO3)2, and KCl.

[2] = Solid-state stability test (XRPD, HPLC purity); type: physicochemical
[3] = Solubility Test I (stepwise solvent addition); type: physicochemical; conditions: thermodynamic from solid, room temperature
Experimental: About 2 mg of the crystal form A sample prepared according to Example 2 was weighed out and added to an HPLC vial, and the corresponding solvent was added stepwise (50/50/200/700 μL in sequence), followed by oscillation until the solid was completely dissolved. If the sample was still not completely dissolved after 1 mL of the solvent was added, no more solvent was added. The solubility range was calculated based on the mass of the solid sample, the volume of the solvent added, and the observed dissolution results, and the results are summarized in Table 3-1.

[4] = Solubility Test II (saturated solubility by HPLC); type: physicochemical; conditions: for solubility at 24 h: 37 °C, thermodynamic from solid
Experimental: Chromatographic column: Waters XTERRA RP18, 4.6 mm×150 mm, 3.5 μm or an equivalent chromatographic column. […] The gradient elution conditions are shown in Table 3-2. pH 4.5 acetate buffer: 0.59806 g of sodium acetate trihydrate was added to a 200-mL measuring flask and dissolved in an appropriate amount of water; 1.6 mL of glacial acetic acid was added; and the mixture was diluted to volume to obtain the pH 4.5 acetate buffer. pH 6.8 phosphate buffer: 1.38501 g of potassium dihydrogen phosphate and 0.18086 g of sodium hydroxide were added to the same 200-mL measuring flask; and the mixture was dissolved in water and diluted to volume to obtain the pH 6.8 phosphate buffer. 10.0 mL of each medium was precisely measured, and the media were placed into different 25-mL measuring flasks; an appropriate amount of each test crystal form was added; and the flasks were sealed and oscillated in an oscillator at 37° C. for 24 h to obtain supersaturated solutions. pH 6.8 phosphate buffer sample solution: the supersaturated solution prepared using the pH 6.8 phosphate buffer medium was filtered to obtain the pH 6.8 phosphate buffer sample solution. Water sample solution: the supersaturated solution prepared using the water medium was filtered to obtain the water sample solution. pH 4.5 acetate buffer sample solution: the supersaturated solution prepared using the pH 4.5 acetate buffer medium was filtered, and 1.0 mL of the filtrate was precisely measured and placed into a 10-mL measuring flask; the filtrate was diluted to volume with the pH 4.5 acetate buffer medium, and 1.0 mL of the solution was then precisely measured and placed into the 10-mL measuring flask; and the solution was diluted to volume with methanol to obtain the pH 4.5 acetate buffer sample solution. (ii) Preparation of crystal form A sample solution: pH 6.8 phosphate buffer sample solution: the supersaturated solution prepared using the pH 6.8 phosphate buffer medium was filtered to obtain the pH 6.8 phosphate buffer sample solution. Water sample solution: the supersaturated solution prepared using the water medium was filtered to obtain the water sample solution. pH 4.5 acetate buffer sample solution: the supersaturated solution prepared using the pH 4.5 acetate buffer medium was filtered, and 1.0 mL of the filtrate was precisely measured and placed into a 10-mL measuring flask; the filtrate was diluted to volume with the pH 4.5 acetate buffer medium, and 1.0 mL of the solution was then precisely measured and placed into a 25-mL measuring flask; and the solution was diluted to volume with methanol to obtain the pH 4.5 acetate buffer sample solution. Each medium sample solution was taken, 10 μL of each test sample solution was precisely measured and injected into a liquid chromatograph according to the chromatography conditions described above, and the chromatogram was recorded. The saturated solution degree of each medium was calculated according to the formula below. In the formula: WR=sample weight of control solution, mg; PR=purity factor of control; • AS=peak area of main peak in test solution: DS=dilution factor of test solution; • AR=peak area of main peak in control solution; DR=dilution factor of control solution;

[5] = Pharmacokinetic experiment in SD rats; type: in vivo; conditions: oral intragastric 10 mg/kg
Experimental: Six SPF-grade SD rats were prepared and weighed before administration. The dose of administration was calculated based on the weight. […] These administration solutions were orally and intragastrically administered at 10 mg/kg. The rats were weighed before administration, and the dose of administration was calculated based on the weight. 3 rats were used for each crystal form. The administration solutions were orally and intragastrically administered, followed by collection of samples via the jugular vein or other suitable means at the following time points: 0.25 […], and 24 h. About 0.20 mL of each sample was collected, and the plasma was separated out by centrifugation within 2 h. The compound I was detected, and plasma drug concentration-time curves were plotted. The pharmacokinetic parameters were calculated by utilizing WinNonlin according to the plasma concentration data at different time points.

[6] = 25° C./60% RH/uncovered, 2 weeks
[7] = 25° C./60% RH/uncovered, 4 weeks
[8] = 25° C./60% RH/uncovered, 6 weeks
[9] = 40° C./75% RH/uncovered, 2 weeks
[10] = 40° C./75% RH/uncovered, 4 weeks
[11] = 40° C./75% RH/uncovered, 6 weeks

Question: Which results are given for `CCOc1cc(-c2ccc(N3CC4CC(C3)N4Cc3ccc(OC)nc3)nc2)c2c3cn[nH]c3nn2c1` (single isomer, unassigned) [Crystal form A]?
Answer: hygroscopicity evaluation ([1]; DVS at 25° C., 0% RH-95% RH, according to Chinese Pharmacopoeia 2015 Edition): slightly hygroscopic; hygroscopic weight gain ([1]; DVS, 25° C./80% RH, listed as crystal form A): about 1.1%; crystal form after the DVS test (XRPD) ([1]; after DVS test): not changed; Purity (area %) [2, 6]: 99.95 area %; Relative to initial purity (%) [2, 6]: 99.99%; Crystal form change ([2]; 25° C./60% RH/uncovered, 2 weeks, XRPD): No change; Purity (area %) [2, 7]: 99.94 area %; Relative to initial purity (%) [2, 7]: 99.98%; Crystal form change ([2]; 25° C./60% RH/uncovered, 4 weeks, XRPD): No change; Purity (area %) [2, 8]: 99.96 area %; Relative to initial purity (%) [2, 8]: 100.00%; Crystal form change ([2]; 25° C./60% RH/uncovered, 6 weeks, XRPD): No change; Purity (area %) [2, 9]: 99.96 area %; Relative to initial purity (%) [2, 9]: 100.00%; Crystal form change ([2]; 40° C./75% RH/uncovered, 2 weeks, XRPD): No change; Purity (area %) [2, 10]: 99.96 area %; Relative to initial purity (%) [2, 10]: 100.00%; Crystal form change ([2]; 40° C./75% RH/uncovered, 4 weeks, XRPD): No change; Purity (area %) [2, 11]: 99.95 area %; Relative to initial purity (%) [2, 11]: 99.99%; Crystal form change ([2]; 40° C./75% RH/uncovered, 6 weeks, XRPD): No change; Purity (area %) ([2]; 60° C./sealed, 24 h): 99.96 area %; Relative to initial purity (%) ([2]; 60° C./sealed, 24 h): 100.00%; Crystal form change ([2]; 60° C./sealed, 24 h, XRPD): No change; HPLC purity under the test conditions ([2]; all stability conditions (60° C. sealed 24 h; 25° C./60% RH and 40° C./75% RH uncovered 2, 4, 6 weeks)): not significantly reduced; crystal form under the test conditions ([2]; all stability conditions, XRPD): not changed; solubility ([3]; organic solvent or mixture, solvent 1,4-Dioxane): 2000 to 6700 µg/mL (≈ 4.03 to 13.5 mM); solubility ([3]; organic solvent or mixture, solvent 2-MeTHF): 2400 to 8000 µg/mL (≈ 4.83 to 16.1 mM); solubility ([3]; organic solvent or mixture, solvent ACN): < 2200 µg/mL; solubility ([3]; organic solvent or mixture, solvent Acetone, undissolved sample completely dissolved at 50° C. ~1 h): < 1900 µg/mL; solubility ([3]; organic solvent or mixture, solvent Anisole, undissolved sample completely dissolved at 50° C. ~1 h): < 2200 µg/mL; solubility ([3]; organic solvent or mixture, solvent CHCl3): 20000 to 40000 µg/mL (≈ 40.3 to 80.6 mM); solubility ([3]; organic solvent or mixture, solvent CPME, undissolved sample completely dissolved at 50° C. ~1 h): < 2000 µg/mL; solubility ([3]; organic solvent or mixture, solvent DCM): 7700 to 23000 µg/mL (≈ 15.5 to 46.3 mM); solubility ([3]; organic solvent or mixture, solvent DMSO): 21000 to 42000 µg/mL (≈ 42.3 to 84.6 mM); solubility ([3]; organic solvent or mixture, solvent EtOAc, undissolved sample completely dissolved at 50° C. ~1 h): < 2200 µg/mL; solubility ([3]; organic solvent or mixture, solvent EtOH, undissolved sample completely dissolved at 50° C. ~1 h): < 1900 µg/mL; solubility ([3]; organic solvent or mixture, solvent IPA, undissolved sample completely dissolved at 50° C. ~1 h): < 2000 µg/mL; solubility ([3]; organic solvent or mixture, solvent IPAC): < 2200 µg/mL; solubility ([3]; organic solvent or mixture, solvent MIBK): < 2200 µg/mL; solubility ([3]; organic solvent or mixture, solvent MTBE): < 2200 µg/mL; solubility ([3]; organic solvent or mixture, solvent MeOH, undissolved sample completely dissolved at 50° C. ~1 h): < 2100 µg/mL; solubility ([3]; organic solvent or mixture, solvent THE): 1900 to 6300 µg/mL (≈ 3.83 to 12.7 mM); solubility ([3]; organic solvent or mixture, solvent Toluene): < 2000 µg/mL; solubility ([3]; organic solvent or mixture, solvent n-Heptane): < 2000 µg/mL; solubility ([3]; water, solvent H2O): < 2300 µg/mL; Saturated solubility ([4]; pH 4.5 acetate buffer, 37° C., 24 h, listed as crystal form A): 14545.08 µg/mL; solubility at 24 h ([4]; pH 6.8 phosphate buffer, pH 6.8, aqueous buffer): 0.04 µg/mL (≈ 8.06e-05 mM); solubility at 24 h ([4]; water): 0.61 µg/mL (≈ 0.00123 mM); AUC(0-t) ([5]; SD, rat, plasma, po, 10 mg/kg, 1 mg/mL in 5% DMSO in normal saline, compound I in plasma, 0.25-24 h, read-out: AUC(0-t)): 19100 ng·h/mL; in vivo absorption ([5]; comparison of crystal forms): significantly superior to that of the crystal form B
